The text below walks through data of ChEMBL document CHEMBL5608215, “Development of amphipathic derivatives of thymol and carvacrol as potent broad-spectrum antibacterial agents” (Eur J Med Chem, 2024).

In general, MIC refers to the lowest concentration that inhibits growth of the organism.

What all share (assay type): functional
The test system of one test is Pseudomonas aeruginosa. In words: Antibacterial activity against Pseudomonas aeruginosa ATCC27853 by CLSI based serial dilution method.
Test [1] relates to Staphylococcus aureus. As to the kind of experiment: Antibacterial activity against Staphylococcus aureus ATCC29213 by CLSI based serial dilution method.
The next test concerns Escherichia coli. As to the kind of experiment: Antibacterial activity against Escherichia coli ATCC25922 by CLSI based serial dilution method.
The test system of a further test is Enterococcus faecalis. In words: Antibacterial activity against Enterococcus faecalis ATCC29212 by CLSI based serial dilution method.
The test system of another test is Enterococcus. In words: Antibacterial activity against vancomycin-resistant Enterococcus ATCC51299 by CLSI based serial dilution method.
Test [2] relates to Staphylococcus aureus. In words: Antibacterial activity against methicillin-resistant Staphylococcus aureus 21-5 by CLSI based serial dilution method.

Values after ≈ are worked out from the molar mass of the structure shown. Bounds are passed on as bounds.

In the case of `Cc1ccc(C(C)C)c(O)c1` [THYMOL], the MIC in the test with Pseudomonas aeruginosa is more than 128 µg/mL; with Staphylococcus aureus [1], more than 128 µg/mL; against Escherichia coli it was 128 µg/mL (≈ 852 µM); with Enterococcus faecalis, more than 128 µg/mL; in the test on Enterococcus, more than 128 µg/mL; in the test on Staphylococcus aureus [2], more than 128 µg/mL.

Turning to `CCCCCNC(=O)C[N+](C)(C)CCCOc1cc(C(C)C)ccc1C.[Br-]`, the minimal inhibitory concentration (MIC) against Pseudomonas aeruginosa worked out at 128 µg/mL; with Staphylococcus aureus [1], 8 µg/mL; against Escherichia coli, 32 µg/mL; with Enterococcus faecalis, 16 µg/mL; in the test on Enterococcus it was 32 µg/mL; against Staphylococcus aureus [2], 32 µg/mL.

On to `CCCCCCN(CCCCCC)C(=O)C[N+](C)(C)CCCCCOc1cc(C(C)C)ccc1C.[Br-]`, for which the MIC against Pseudomonas aeruginosa worked out at 16 µg/mL; with Staphylococcus aureus [1], 1 µg/mL; against Escherichia coli it was 8 µg/mL; against Enterococcus faecalis, 1 µg/mL; in the test on Enterococcus, 1 µg/mL; against Staphylococcus aureus [2], 16 µg/mL.

With `CCCN(CCC)C(=O)C[N+](C)(C)CCCOc1cc(C(C)C)ccc1C.[Br-]`, the MIC in the test on Pseudomonas aeruginosa was more than 128 µg/mL; against Staphylococcus aureus [1], 32 µg/mL; with Escherichia coli, 128 µg/mL; in the test on Enterococcus faecalis, 32 µg/mL; against Enterococcus, 128 µg/mL; against Staphylococcus aureus [2] it was 64 µg/mL.

With `CCCCCCN(CCCCCC)C(=O)C[N+](C)(C)CCCCCOc1cc(C)ccc1C(C)C.[Br-]`, the MIC against Pseudomonas aeruginosa, against Staphylococcus aureus [1], against Escherichia coli, against Enterococcus faecalis, with Enterococcus and in the test on Staphylococcus aureus [2] was more than 128 µg/mL each time.

Regarding `Cc1ccc(C(C)C)cc1OCCCCC[N+](C)(C)CC(=O)N1CCSCC1.[Br-]`, the MIC was more than 128 µg/mL in the test with Pseudomonas aeruginosa; 32 µg/mL with Staphylococcus aureus [1]; 128 µg/mL with Escherichia coli; 32 µg/mL in the test on Enterococcus faecalis; 64 µg/mL in the test with Enterococcus; 128 µg/mL against Staphylococcus aureus [2].

Consider `CCCCCNC(=O)C[N+](C)(C)CCCOc1cc(C)ccc1C(C)C.[Br-]`, for which the MIC with Pseudomonas aeruginosa is more than 128 µg/mL; against Staphylococcus aureus [1] it was 8 µg/mL; against Escherichia coli it was 32 µg/mL; in the test with Enterococcus faecalis it was 16 µg/mL; against Enterococcus, 32 µg/mL; in the test with Staphylococcus aureus [2], 16 µg/mL.

Take `CCCCNC(=O)C[N+](C)(C)CCCCCOc1cc(C(C)C)ccc1C.[Br-]`: the MIC is more than 128 µg/mL in the test on Pseudomonas aeruginosa; 16 µg/mL against Staphylococcus aureus [1]; more than 64 µg/mL against Escherichia coli; 16 µg/mL in the test on Enterococcus faecalis; 128 µg/mL in the test with Enterococcus; 16 µg/mL in the test on Staphylococcus aureus [2].

Turning to `CCCN(CCC)C(=O)C[N+](C)(C)CCCCOc1cc(C(C)C)ccc1C.[Br-]`, the MIC in the test with Pseudomonas aeruginosa was more than 128 µg/mL; with Staphylococcus aureus [1], 16 µg/mL; against Escherichia coli it was 128 µg/mL; with Enterococcus faecalis, 32 µg/mL; against Enterococcus, 64 µg/mL; in the test with Staphylococcus aureus [2] it was 32 µg/mL.

Turning to `CCCCCCNC(=O)C[N+](C)(C)CCCCOc1cc(C)ccc1C(C)C.[Br-]`, the MIC with Pseudomonas aeruginosa came to 64 µg/mL; against Staphylococcus aureus [1] it was 2 µg/mL; with Escherichia coli it was 16 µg/mL; against Enterococcus faecalis, 4 µg/mL; against Enterococcus, 8 µg/mL; in the test on Staphylococcus aureus [2], 1 µg/mL.

In the case of `CCCCCCNC(=O)C[N+](C)(C)CCCOc1cc(C)ccc1C(C)C.[Br-]`, the MIC in the test on Pseudomonas aeruginosa worked out at 32 µg/mL; against Staphylococcus aureus [1], 4 µg/mL; against Escherichia coli, 16 µg/mL; against Enterococcus faecalis, 4 µg/mL; against Enterococcus it was 8 µg/mL; with Staphylococcus aureus [2] it was 4 µg/mL.

As for `Cc1ccc(C(C)C)c(OCCCCC[N+](C)(C)CC(=O)N2CCOCC2)c1.[Br-]`, the MIC against Pseudomonas aeruginosa was more than 128 µg/mL; in the test on Staphylococcus aureus [1] it was 128 µg/mL; in the test with Escherichia coli, more than 128 µg/mL; in the test with Enterococcus faecalis, 128 µg/mL; against Enterococcus, more than 128 µg/mL; against Staphylococcus aureus [2] it was more than 128 µg/mL.

As for `Cc1ccc(C(C)C)cc1OCCCC[N+](C)(C)CC(=O)N1CCSCC1.[Br-]`, the MIC is more than 128 µg/mL against Pseudomonas aeruginosa; 32 µg/mL with Staphylococcus aureus [1]; 128 µg/mL against Escherichia coli; 64 µg/mL with Enterococcus faecalis; 128 µg/mL with Enterococcus; 64 µg/mL with Staphylococcus aureus [2].

With `CCCCCNC(=O)C[N+](C)(C)CCCCOc1cc(C(C)C)ccc1C.[Br-]`, the MIC in the test on Pseudomonas aeruginosa stood at 128 µg/mL; against Staphylococcus aureus [1], 4 µg/mL; in the test on Escherichia coli it was 16 µg/mL; in the test with Enterococcus faecalis, 8 µg/mL; against Enterococcus it was 16 µg/mL; against Staphylococcus aureus [2], 8 µg/mL.

As to `Cc1ccc(C(C)C)cc1OCCC[N+](C)(C)CC(=O)N(CC(C)C)CC(C)C.[Br-]`, the MIC against Pseudomonas aeruginosa is more than 128 µg/mL; against Staphylococcus aureus [1], 4 µg/mL; in the test with Escherichia coli, 64 µg/mL; against Enterococcus faecalis, 16 µg/mL; in the test with Enterococcus, 16 µg/mL; in the test on Staphylococcus aureus [2], 16 µg/mL.

As for `CCCCCNC(=O)C[N+](C)(C)CCCCCOc1cc(C)ccc1C(C)C.[Br-]`, the MIC was 128 µg/mL against Pseudomonas aeruginosa; 8 µg/mL against Staphylococcus aureus [1]; 32 µg/mL with Escherichia coli; 16 µg/mL against Enterococcus faecalis; 16 µg/mL against Enterococcus; 4 µg/mL in the test on Staphylococcus aureus [2].

With `CCCN(CCC)C(=O)C[N+](C)(C)CCCCCOc1cc(C(C)C)ccc1C.[Br-]`, the minimum inhibitory concentration (MIC) was more than 128 µg/mL against Pseudomonas aeruginosa; 8 µg/mL against Staphylococcus aureus [1]; 64 µg/mL against Escherichia coli; 8 µg/mL in the test on Enterococcus faecalis; 16 µg/mL with Enterococcus; 16 µg/mL in the test with Staphylococcus aureus [2].

For `Cc1ccc(C(C)C)cc1OCCCCC[N+](C)(C)CC(=O)N(CC(C)C)CC(C)C.[Br-]`, the MIC came to 64 µg/mL in the test with Pseudomonas aeruginosa; 2 µg/mL against Staphylococcus aureus [1]; 32 µg/mL against Escherichia coli; 4 µg/mL against Enterococcus faecalis; 64 µg/mL with Enterococcus; 4 µg/mL in the test on Staphylococcus aureus [2].

Regarding `CCCCCNC(=O)C[N+](C)(C)CCCCOc1cc(C)ccc1C(C)C.[Br-]`, the MIC in the test with Pseudomonas aeruginosa was more than 128 µg/mL; against Staphylococcus aureus [1], 8 µg/mL; with Escherichia coli, 32 µg/mL; against Enterococcus faecalis it was 16 µg/mL; against Enterococcus it was 32 µg/mL; against Staphylococcus aureus [2], 8 µg/mL.

`CCCCNC(=O)C[N+](C)(C)CCCCOc1cc(C(C)C)ccc1C.[Br-]`: the MIC is more than 128 µg/mL against Pseudomonas aeruginosa; 16 µg/mL against Staphylococcus aureus [1]; 64 µg/mL in the test with Escherichia coli; 32 µg/mL in the test on Enterococcus faecalis; 64 µg/mL against Enterococcus; 64 µg/mL with Staphylococcus aureus [2].

In the case of `Cc1ccc(C(C)C)c(OCCCCC[N+](C)(C)CC(=O)N2CCSCC2)c1.[Br-]`, the MIC is more than 128 µg/mL against Pseudomonas aeruginosa; 32 µg/mL against Staphylococcus aureus [1]; 128 µg/mL against Escherichia coli; 32 µg/mL against Enterococcus faecalis; 128 µg/mL against Enterococcus; 32 µg/mL in the test on Staphylococcus aureus [2].

For `Cc1ccc(C(C)C)c(OCCC[N+](C)(C)CC(=O)N(C(C)C)C(C)C)c1.[Br-]`, the MIC is more than 128 µg/mL in the test on Pseudomonas aeruginosa; 16 µg/mL against Staphylococcus aureus [1]; 128 µg/mL in the test on Escherichia coli; 16 µg/mL with Enterococcus faecalis; 32 µg/mL with Enterococcus; 16 µg/mL against Staphylococcus aureus [2].

Turning to `CCCNC(=O)C[N+](C)(C)CCCOc1cc(C)ccc1C(C)C.[Br-]`, the MIC was more than 128 µg/mL with Pseudomonas aeruginosa; 64 µg/mL in the test on Staphylococcus aureus [1]; more than 128 µg/mL with Escherichia coli; 128 µg/mL against Enterococcus faecalis; more than 128 µg/mL with Enterococcus; 128 µg/mL against Staphylococcus aureus [2].

For `CCCNC(=O)C[N+](C)(C)CCCCCOc1cc(C)ccc1C(C)C.[Br-]`, the MIC is more than 128 µg/mL with Pseudomonas aeruginosa; 32 µg/mL in the test on Staphylococcus aureus [1]; 128 µg/mL in the test with Escherichia coli; 64 µg/mL against Enterococcus faecalis; 128 µg/mL with Enterococcus; 32 µg/mL with Staphylococcus aureus [2].

For the molecule `Cc1ccc(C(C)C)c(OCCC[N+](C)(C)CC(=O)N2CCSCC2)c1.[Br-]`, the MIC is more than 128 µg/mL in the test on Pseudomonas aeruginosa; 64 µg/mL in the test with Staphylococcus aureus [1]; more than 128 µg/mL against Escherichia coli; 128 µg/mL against Enterococcus faecalis; more than 128 µg/mL against Enterococcus; 64 µg/mL with Staphylococcus aureus [2].

With `Cc1ccc(C(C)C)cc1OCCCCC[N+](C)(C)CC(=O)N1CCOCC1.[Br-]`, the MIC is more than 128 µg/mL in the test on Pseudomonas aeruginosa; 128 µg/mL in the test with Staphylococcus aureus [1]; more than 128 µg/mL in the test with Escherichia coli; 128 µg/mL in the test with Enterococcus faecalis; more than 128 µg/mL against Enterococcus; 128 µg/mL against Staphylococcus aureus [2].

For the molecule `Cc1ccc(C(C)C)cc1OCCCC[N+](C)(C)CC(=O)N1CCOCC1.[Br-]`, the minimum inhibitory concentration (MIC) against Pseudomonas aeruginosa, with Staphylococcus aureus [1], against Escherichia coli, in the test with Enterococcus faecalis, against Enterococcus and in the test on Staphylococcus aureus [2] was more than 128 µg/mL each time.

With `Cc1ccc(C(C)C)cc1OCCCCC[N+](C)(C)CC(=O)N(C(C)C)C(C)C.[Br-]`, the MIC against Pseudomonas aeruginosa is more than 128 µg/mL; against Staphylococcus aureus [1] it was 4 µg/mL; in the test on Escherichia coli, 64 µg/mL; against Enterococcus faecalis it was 8 µg/mL; with Enterococcus, 8 µg/mL; with Staphylococcus aureus [2] it was 8 µg/mL.

With `CCCCCCCNC(=O)C[N+](C)(C)CCCOc1cc(C(C)C)ccc1C.[Br-]`, the MIC in the test on Pseudomonas aeruginosa worked out at 16 µg/mL; in the test on Staphylococcus aureus [1], 2 µg/mL; with Escherichia coli, 8 µg/mL; against Enterococcus faecalis it was 2 µg/mL; against Enterococcus it was 4 µg/mL; with Staphylococcus aureus [2], 16 µg/mL.

Turning to `CCCCCCCNC(=O)C[N+](C)(C)CCCCCOc1cc(C)ccc1C(C)C.[Br-]`, the MIC in the test on Pseudomonas aeruginosa was found to be 32 µg/mL; with Staphylococcus aureus [1], 4 µg/mL; in the test with Escherichia coli, 16 µg/mL; with Enterococcus faecalis, 4 µg/mL; against Enterococcus, 8 µg/mL; against Staphylococcus aureus [2], 16 µg/mL.

Consider `CCCN(CCC)C(=O)C[N+](C)(C)CCCCCOc1cc(C)ccc1C(C)C.[Br-]`, for which the MIC is more than 128 µg/mL against Pseudomonas aeruginosa; 8 µg/mL in the test on Staphylococcus aureus [1]; 64 µg/mL in the test on Escherichia coli; 8 µg/mL against Enterococcus faecalis; 16 µg/mL in the test on Enterococcus; 8 µg/mL with Staphylococcus aureus [2].

In the case of `CCCCNC(=O)C[N+](C)(C)CCCCCOc1cc(C)ccc1C(C)C.[Br-]`, the MIC against Pseudomonas aeruginosa is more than 128 µg/mL; in the test on Staphylococcus aureus [1] it was 8 µg/mL; in the test on Escherichia coli, 64 µg/mL; in the test with Enterococcus faecalis, 16 µg/mL; against Enterococcus, 64 µg/mL; with Staphylococcus aureus [2] it was 16 µg/mL.

For the molecule `CCCCCCN(CCCCCC)C(=O)C[N+](C)(C)CCCOc1cc(C(C)C)ccc1C.[Br-]`, the MIC came out at 16 µg/mL in the test with Pseudomonas aeruginosa; 0.25 µg/mL against Staphylococcus aureus [1]; 4 µg/mL against Escherichia coli; 0.25 µg/mL against Enterococcus faecalis; 1 µg/mL against Enterococcus; 8 µg/mL in the test on Staphylococcus aureus [2].
